Ten molecules from article PMC7470027, “Synthesis and structure-activity relationships of novel 5-(hydroxamic acid)methyl oxazolidinone derivatives as 5-lipoxygenase inhibitors” (Journal of Enzyme Inhibition and Medicinal Chemistry, 2020) can be followed below.

Broadly, the melting point is the temperature, or range, at which the solid turns liquid.

Like-named read-outs stand apart in the source and are kept apart here.

Series [1] relates to 5-LO product LTC4 from isolated human monocytes. Nature of the series: Inhibition of 5-LO product LTC4 from isolated human monocytes (A23187). In kind it is cell-based. As to conditions: calcium ionophore A23187, 95% confidence interval in brackets, read-out: Human monocyte LTC4 IC50 (CI). The method, then: Mononuclear cells were first isolated from heparinised blood using the Ficoll-Hypaque gradient centrifugation method. Monocytes were subsequently purified by adherence to plastic according to standard protocols. The purity of the adherent monocytes (CD14+) was routinely confirmed by flow cytometry to be >95% and viability (by trypan blue exclusion method) was routinely >97%. Adherent monocytes were then washed and incubated in 190 µl culture medium RPMI-1640 supplemented with 100 U/ml penicillin, 100 µg/ml streptomycin and 10% heat-inactivated foetal bovine serum (Sigma-Aldrich, St Louis, MO). […] After further incubation for 15 min, the culture supernatants were recovered by centrifugation and stored at −40 °C pending LTC4 determination.
(§1) Appropriately diluted supernatants were assayed for the released products – LTs (LTB4 and LTC4), by the enzyme immunoassay (EIA) method using assay kits supplied by R&D Systems (Minneapolis, MN) and following the manufacturer’s instructions.
(§2) All data were analysed using GraphPad Prism software (GraphPad Software, San Diego, CA). […] Differences between experimental groups were first analysed by one-way ANOVA, followed by Bonferroni’s post-hoc test. A p-value of less than 0.05 was taken as statistically significant.

In series [2] the test system is 5-LO product LTC4 from allergen/IgE-activated bone marrow-derived mouse mast cells (BMMC). As to the kind of experiment: Inhibition of 5-LO product LTC4 from allergen/IgE-activated bone marrow-derived mouse mast cells (BMMC). As to conditions: anti-DNP IgE/DNP-BSA-activated BMMC, 95% confidence interval in brackets, read-out: Mouse mast cell LTC4 IC50 (CI). In kind it is cell-based. The method, then: Bone marrow-derived mast cells (BMMC) were generated from pathogen-free 5 to 7-weeks-old male Balb/c mice according to the method of Davis et al.[28]. Essentially, bone marrow cells were obtained by flushing the femoral bone marrow and the recovered cells cultured in RPMI 1640 medium supplemented with 10% FBS, 100 U/ml penicillin, and 100 µg/ml streptomycin, 25 mM HEPES, 1.0 mM sodium pyruvate, 0.1 mM nonessential amino acids, 0.0035% 2-mercaptoethanol, and 30 ng/ml mouse recombinant IL-3, with culture medium, replaced every 2 days. Cells were used after 4–8 weeks of culture, by which time at least 97% of the cells would have differentiated into mast cells, as routinely obtained in our laboratory.
The generated BMMCs were seeded at 5 × 10^4 cells/well in a 96-well flat-bottom culture plate and passively sensitised overnight with 0.5 µg/ml anti-DNP monoclonal IgE antibody. The cells were then washed twice to remove any unbound antibody and subsequently resuspended in reaction buffer (135 mM NaCl, 5 mM KCl, 1.8 mM CaCl2, 1 mM MgCl2, 5.6 mM glucose, 0.05% BSA and 20 mM HEPES, pH 7.4). They were then pre-incubated with the test compounds (0.001 − 30 μM) or the solvent (0.05% DMSO) for 15 min before being stimulated with the specific antigen, DNP-BSA (10–30 ng/ml). After 30 min incubation at 37 °C, the amount of LTC4 released into the supernatant was determined by ELISA as described below.
as §1, §2

In series [3] the test system is 5-LO-dependent generation of LTB4 from activated human whole blood. As to the kind of experiment: Inhibition of 5-LO product LTB4 from activated human whole blood (LPS/FMLP). As to conditions: LPS-primed, FMLP-stimulated human whole blood; 95% confidence interval in brackets; read-out: Human whole blood LTB4 IC50 (CI). In kind it is cell-based. The method, then:
All compounds were evaluated for inhibitory activity against the 5-LO-dependent generation of LTB4 from activated human whole blood. With ethical approval from the Health Sciences Centre Ethical Committee of Kuwait University, heparinised fresh human blood samples from apparently healthy individuals of both sexes were obtained from the Kuwait Central Blood Bank. All donors gave informed consent and the work was carried out in accordance with the “Declaration of Helsinki” for experiments involving human subjects. Aliquots of 185 µl of whole blood were dispensed into each well of a 96-well culture plate containing 5 µl of the priming agent, LPS (1 µg/ml final concentration). […] After further incubation for 15 min at 37 °C, 5 µl of FMLP (1 µM final concentration) was added to stimulate LT production. The reaction was stopped 15 min later, and the supernatants were recovered by centrifugation and stored at −40 °C pending analysis of LTB4 content.
as §1, §2

Series [4] deals with leukotriene (LT) biosynthesis / 5-LO. Nature of the series: Overall activity across the four in vitro test systems (three cell-based LT release assays and 5-LO). As to conditions: for Activity across the in vitro test systems (in words): cell-based systems and cell-free 5-LO. The method, then: Furthermore, in order to confirm that the in vitro inhibitory activity of the compounds was not due to the direct toxic effects on the cells, the effect of the compounds on the viability of isolated human monocytes after 3 h and 24 h treatment was performed. Finally, in vivo anti-inflammatory studies were performed using the zymosan-induced peritoneal inflammation model in mice, which is a well-known model in which the LTs are known to play a critical role[26].
The inhibitory activity data for the tested compounds obtained in three cell-based in vitro test systems - LTB4 release from human whole blood, LTC4 release from isolated human monocytes and LTC4 release from IgE/antigen-activated mouse mast cells, are shown in Table 1. Similar data on the direct inhibitory effect on the enzymatic activity of recombinant human 5-LO, together with the calculated Clog P (log of partition coefficient) values, which is an indication of the lipophilicity of each compound, are also shown in Table 1.

Another series has as its target T1, recombinant human 5-LO (Homo sapiens, UniProt P09917).
T1 sequence (P09917 1-674): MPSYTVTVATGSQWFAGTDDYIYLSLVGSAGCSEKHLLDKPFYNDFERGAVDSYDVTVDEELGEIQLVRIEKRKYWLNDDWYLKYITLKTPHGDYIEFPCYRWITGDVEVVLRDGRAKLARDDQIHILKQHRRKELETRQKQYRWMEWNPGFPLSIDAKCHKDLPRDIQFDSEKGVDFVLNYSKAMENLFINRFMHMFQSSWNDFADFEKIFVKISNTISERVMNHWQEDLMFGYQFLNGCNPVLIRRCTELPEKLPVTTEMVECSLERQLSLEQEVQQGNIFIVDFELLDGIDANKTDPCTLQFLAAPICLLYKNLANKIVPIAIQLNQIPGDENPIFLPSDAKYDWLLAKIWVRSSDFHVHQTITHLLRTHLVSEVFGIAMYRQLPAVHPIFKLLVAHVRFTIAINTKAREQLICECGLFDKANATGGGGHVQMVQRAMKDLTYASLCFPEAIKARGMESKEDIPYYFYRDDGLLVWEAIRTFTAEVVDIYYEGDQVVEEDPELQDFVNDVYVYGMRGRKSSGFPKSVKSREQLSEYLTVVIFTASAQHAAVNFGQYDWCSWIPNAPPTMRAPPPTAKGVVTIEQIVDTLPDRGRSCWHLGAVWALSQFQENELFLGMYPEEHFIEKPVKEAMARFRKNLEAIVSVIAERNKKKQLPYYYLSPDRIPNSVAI
As to the kind of experiment: Direct inhibition of 5-LO activity in a cell-free assay (H2DCF-DA fluorescence). In kind it is biochemical. The conditions noted are these: for IC50: cell-free, recombinant human 5-LO, 95% confidence interval in brackets. The method, then: The assay was based on the oxidation of the dye 2′,7′-dichlorodihydrofluorescein diacetate (H2DCF-DA) to a highly fluorescent product by 5-LO enzymatic products. H2DCF-DA (60 µM) was first pre-cleaved by incubating with 450 mU/ml recombinant human 5-LO enzyme in Tris buffer (containing 50 mM Tris, pH = 7.5, 2 mM EDTA, 2 mM CaCl2, 1 mM DTT and 0.6 U/ml glutathione peroxidase) for 10 min at room temperature. […] After 10 min incubation at room temperature, the reaction was started with the addition of 50 µl of substrate solution (Tris buffer containing 20 µM ATP and 20 µM arachidonic acid (AA). After a further 20 min, the reaction was terminated with 100 µl acetonitrile. Fluorescence was read at 500 nm excitation and 520 nm emission, with Novostar^R microplate reader (BMG Labtech, Offenburg, Germany). Appropriate controls, including 100 µM nordihydroguaiaretic acid (NDGA), were included to isolate only the 5-LO-attributable, NDGA-inhibitable RFU values.
as §2

Where [5] appears, read: read-out: Direct inhibition of 5-LO activity. IC50 (CI).

Regarding `CC(c1cc2ccccc2s1)N(O)C(N)=O` (racemic) [Zileuton, (±)1–(1-(benzo[b]thiophen-2-yl)-ethyl)-1-hydroxyurea, reference compound], the IC50 in series [1] (Monocyte) is 0.5 µM; in series [2] (Mus musculus), 0.4 µM; in series [3] it was 0.7 µM.
As to `O=C(C1CC1)N(O)C[C@H]1CN(c2ccc(N3CCOCC3)c(F)c2)C(=O)O1` [PH-211], the IC50 in series [1] was found to be 7.5 µM; on recombinant human 5-LO (setting [5]), 3.5 µM; in series [2], 8.7 µM; in series [3] it was 1.3 µM. Besides, the “Activity across the in vitro test systems (in words)” value in series [4] was “active in all four test systems”.
For `CC(C)CC(=O)ON(C[C@H]1CN(c2ccc(N3CCOCC3)c(F)c2)C(=O)O1)C(=O)CC(C)C` [PH-237, (R)-N-((3-(3-fluoro-4-morpholinophenyl)-2-oxooxazolidin-5-yl)methyl)-3-methyl-N-((3-methylbutanoyl)oxy)butanamide], the melting point fell in the range of 89 to 90 °C. Moreover, the IC50 in series [1] (Monocyte) was > 50 µM. Also, the “Activity across the in vitro test systems (in words)” value in series [4] was “inactive in both systems”. The IC50 at recombinant human 5-LO is > 30 µM. For the same molecule, the IC50 in series [2] (Mus musculus) was > 50 µM. In addition, the IC50 in series [3] was > 50 µM.
In turn, `CC(C)CC(=O)N(O)C[C@H]1CN(c2ccc(N3CCOCC3)c(F)c2)C(=O)O1` [PH-239, (R)-N-((3-(3-fluoro-4-morpholinophenyl)-2-oxooxazolidin-5-yl)methyl)-N-hydroxy-3-methylbutanamide] gave a melting point of 122 to 124.5 °C. The IC50 in series [1] (Monocyte) was 8 µM. Also, the “Activity across the in vitro test systems (in words)” value in series [4] was “active in all four test systems”. Also, at recombinant human 5-LO, the IC50 came out at 4.7 µM. Further, in series [2] (Mus musculus), the IC50 was 3.1 µM. Also, in series [3], the IC50 amounted to 3.5 µM.
With `CCCCC(=O)N(O)C[C@H]1CN(c2ccc(N3CCOCC3)c(F)c2)C(=O)O1` [PH-241, (R)-N-((3-(3-fluoro-4-morpholinophenyl)-2-oxooxazolidin-5-yl)methyl)-N-hydroxypentanamide], the IC50 was determined as 3.2 µM in series [1] (Monocyte), 3.3 µM at recombinant human 5-LO, 2.8 µM in series [2] (Mus musculus) and 2.2 µM in series [3]. The “Activity across the in vitro test systems (in words)” value in series [4] is “active in all four test systems”.
For the molecule `O=C(C1CCCC1)N(O)C[C@H]1CN(c2ccc(N3CCOCC3)c(F)c2)C(=O)O1` [PH-244, (R)-N-((3-(3-fluoro-4-morpholinophenyl)-2-oxooxazolidin-5-yl)methyl)-N-hydroxycyclopentanecarboxamide], the IC50 in series [3] worked out at 5.5 µM.
`O=C(C1CCC1)N(O)C[C@H]1CN(c2ccc(N3CCOCC3)c(F)c2)C(=O)O1` [PH-245, (R)-N-((3-(3-fluoro-4-morpholinophenyl)-2-oxooxazolidin-5-yl)methyl)-N-hydroxycyclobutanecarboxamide]: in series [3], the IC50 was 3.4 µM.
As to `CCCCCC(=O)ON(C[C@H]1CN(c2ccc(N3CCOCC3)c(F)c2)C(=O)O1)C(=O)CCCCC` [PH-246], the IC50 in series [1] was determined as 7.1 µM; on recombinant human 5-LO (setting [5]), 21.6 µM; in series [2], 3.3 µM; in series [3], 1.5 µM. Moreover, the “Inhibition of isolated 5-LO enzyme activity (in words)” value at recombinant human 5-LO (cell-free experiments) is reported as “very weak”.
`CCCCCC(=O)N(O)C[C@H]1CN(c2ccc(N3CCOCC3)c(F)c2)C(=O)O1` [PH-247, (R)-N-((3-(3-fluoro-4-morpholinophenyl)-2-oxooxazolidin-5-yl)methyl)-N-hydroxyhexanamide] had a melting point of 118.5 to 120.5 °C. The IC50 in series [1] (Monocyte) was 2.5 µM. Further, the “Activity across the in vitro test systems (in words)” value in series [4] is recorded as “active in all four test systems”. In addition, the IC50 on recombinant human 5-LO stood at 3.4 µM. Further, the IC50 in series [2] (Mus musculus) turned out to be 2.9 µM. In addition, the IC50 in series [3] stood at 2.3 µM.
As for `CCCCCCCC(=O)N(O)C[C@H]1CN(c2ccc(N3CCOCC3)c(F)c2)C(=O)O1` [PH-251, (R)-N-((3-(3-fluoro-4-morpholinophenyl)-2-oxooxazolidin-5-yl)methyl)-N-hydroxyoctanamide], the IC50 was 2.4 µM in series [1] (Monocyte); < 1 µM in series [4] (summary statements, in vitro test systems, read-out: IC50 (test system not specified / across test systems)); 1.6 µM at recombinant human 5-LO; 0.2 µM in series [2] (Mus musculus); 1.9 µM in series [3]. In series [4], the “Activity across the in vitro test systems (in words)” value is “active in all four test systems”.
